Assay results: patent US12691182B2, “Maytansinoid derivatives, conjugates thereof, and methods of use” (priority 2016, dated 2026)

What was measured:
Format in all cases: cell-based
C4-2 (STEAP2+) cells = experiment: In vitro cytotoxicity assay, C4-2 cells (CellTiter-Glo viability); settings: naked payload, 5 days; for C4-2 % kill: % kill reported for the highest dose; for IC50: CellTiter-Glo
Method: (§1) In this Example, the ability of various antibody-drug conjugates and naked payloads to kill antigen-expressing tumor cells in vitro was assessed.
C4-2 (STEAP2+) cells were seeded in 96 well plates at 4000 cells per well in complete growth media and grown overnight. For cell viability curves, serially diluted conjugates or naked payloads were added to the cells at final concentrations ranging from 100 nM to 5 pM and incubated for 5 days. To measure viability, cells were incubated with CellTiter-Glo reagents for 5 minutes and luminescence was determined on a Victor plate reader (PerkinElmer). IC50 values were determined from a four-parameter logistic equation over a 10-point response curve (GraphPad Prism).
(§2) All IC50s are expressed in nM concentration and % kill is reported for the highest dose. All curves and IC50 values are corrected for payload equivalents. The plot of % Cell Viability vs. Log 10 [M]

Ovcar3 (Muc16+) cells = experiment: In vitro cytotoxicity assay, Ovcar3 cells (CCK8 viability); settings: naked payload, 3 days; for Ovcar3 % kill: % kill reported for the highest dose; for IC50: CCK8
Method: as §1
(§3) Ovcar3 (Muc16+) cells were seeded in 96 well plates at 3000 cells per well in complete growth media and grown overnight. For cell viability curves, serially diluted conjugates or naked payloads were added to the cells at final concentrations ranging from 100 nM to 5 pM and incubated for 3 days. To measure viability, cells were incubated with CCK8 (Dojindo) for the final 2 hours and the absorbance at 450 nm (OD450) was determined on a Victor (Perkin Elmer). Background OD450 levels determined from digitonin (40 nM) treated cells were subtracted from all wells and viability is expressed as a percentage of the untreated controls. IC50 values were determined from a four-parameter logistic equation over a 10-point response curve (GraphPad Prism). […] All curves and IC50 values are corrected for payload equivalents. The plot of % Cell Viability vs. Log 10 [M]
as §2

SKBR3 (Her2+) cells = experiment: In vitro cytotoxicity assay, SKBR3 cells (CCK8 viability); settings: naked payload, SKBr-3 cells, 3 days; for SKBr-3 % kill: % kill reported for the highest dose; for IC50: CCK8
Method: as §1
as §3, with “SKBR3 (Her2+)” for “Ovcar3 (Muc16+)”, “8000” for “3000”
as §2

| Compound | C4-2 % kill (C4-2 (STEAP2+) cells) | IC50 (C4-2 (STEAP2+) cells) | Ovcar3 % kill (Ovcar3 (Muc16+) cells) | IC50 (Ovcar3 (Muc16+) cells) | SKBr-3 % kill (SKBR3 (Her2+) cells) | IC50 (SKBR3 (Her2+) cells) |
| --- | --- | --- | --- | --- | --- | --- |
| COc1cc2cc(c1Cl)N(C)C(=O)CC(OC(=O)Nc1ccc(N)cc1)C1(C)OC1C(C)C1CC(O)(NC(=O)O1)C(OC)C=CC=C(C)C2 (centres unmarked) [Compound 8, Maytan-3-O-carbamoyl-N-(4-aminobenzene)] | **** (**** indicates % kill greater than, or equal to, 95 and less than 99) | ≥ 10 nM | ** (** indicates % kill greater than, or equal to, 85 and less than 90) | 1 to 10 nM | **** (**** indicates % kill greater than, or equal to, 95 and less than 99) | 1 to 10 nM |
| COc1cc(NC(=O)OC2CC(=O)N(C)c3cc(cc(OC)c3Cl)CC(C)=CC=CC(OC)C3(O)CC(OC(=O)N3)C(C)C3OC23C)ccc1N (centres unmarked) [Compound 30j, Maytan-3-O-carbamoyl-N-(3-methoxy-4-amino)benzene] | *** (*** indicates % kill greater than, or equal to, 90 and less than 95) | ≥ 10 nM | ** (** indicates % kill greater than, or equal to, 85 and less than 90) | 1 to 10 nM | **** (**** indicates % kill greater than, or equal to, 95 and less than 99) | 0.1 to 1 nM |
| COc1cc2cc(c1Cl)N(C)C(=O)CC(OC(=O)Nc1ccc(N)c(C(F)(F)F)c1)C1(C)OC1C(C)C1CC(O)(NC(=O)O1)C(OC)C=CC=C(C)C2 (centres unmarked) [Compound 30l, Maytan-3-O-carbamoyl-N-(3-trifluoromethyl-4-amino)benzene] |  | ≥ 10 nM | *** (*** indicates % kill greater than, or equal to, 90 and less than 95) | 0.1 to 1 nM | ***** (***** indicates % kill greater than, or equal to, 99) | 0.1 to 1 nM |
| COc1cc2cc(c1Cl)N(C)C(=O)C[C@H](OC(=O)Nc1cc(N3CCCC3)c(N)cc1C)[C@]1(C)O[C@H]1[C@H](C)[C@@H]1C[C@@](O)(NC(=O)O1)[C@H](OC)/C=C/C=C(\C)C2 [Compound 30q, Maytan-3-O-carbamoyl-N-(4-amino-2-methyl-5-pyrrolidin-1-yl)benzene] | *** (*** indicates % kill greater than, or equal to, 90 and less than 95) | ≥ 10 nM |  |  | ***** (***** indicates % kill greater than, or equal to, 99) | 1 to 10 nM |
| COc1cc2cc(c1Cl)N(C)C(=O)CC(OC(=O)Nc1ccc(Cl)cc1N)C1(C)OC1C(C)C1CC(O)(NC(=O)O1)C(OC)C=CC=C(C)C2 (centres unmarked) [Compound 30b, Maytan-3-O-carbamoyl-N-(4-chloro-2-amino)benzene] | * (* indicates % kill less than 85) | ≥ 10 nM |  |  | **** (**** indicates % kill greater than, or equal to, 95 and less than 99) | 0.1 to 1 nM |
| COc1cc2cc(c1Cl)N(C)C(=O)C[C@H](OC(=O)Nc1cc(N3CCOCC3)c(N)cc1C)[C@]1(C)O[C@H]1[C@H](C)[C@@H]1C[C@@](O)(NC(=O)O1)[C@H](OC)/C=C/C=C(\C)C2 [Compound 30p, Maytan-3-O-carbamoyl-N-(4-amino-2-methyl-5-morpholin-4-yl)benzene] |  | ≥ 10 nM |  |  | * (* indicates % kill less than 85) | ≥ 10 nM |
| Maytan-3-O-carbamoyl-N-(6-methyl-3-amino)benzene [Compound 30e] | **** (**** indicates % kill greater than, or equal to, 95 and less than 99) | 1 to 10 nM |  |  | *** (*** indicates % kill greater than, or equal to, 90 and less than 95) | 1 to 10 nM |
| COc1cc2cc(c1Cl)N(C)C(=O)CC(OC(=O)Nc1c(C)cccc1N)C1(C)OC1C(C)C1CC(O)(NC(=O)O1)C(OC)C=CC=C(C)C2 (centres unmarked) [Compound 30f, Maytan-3-O-carbamoyl-N-(6-methyl-2-amino)benzene] | **** (**** indicates % kill greater than, or equal to, 95 and less than 99) | 1 to 10 nM |  |  | ***** (***** indicates % kill greater than, or equal to, 99) | 0.1 to 1 nM |
| Maytan-3-O-carbamoyl-N-(2-methoxy-4-amino)benzene [Compound 30k] |  | ≥ 10 nM | *** (*** indicates % kill greater than, or equal to, 90 and less than 95) | 0.1 to 1 nM | ***** (***** indicates % kill greater than, or equal to, 99) | 1 to 10 nM |
| COc1cc2cc(c1Cl)N(C)C(=O)C[C@H](OC(=O)Nc1ccc(N)cc1C)[C@]1(C)O[C@H]1[C@H](C)[C@@H]1C[C@@](O)(NC(=O)O1)[C@H](OC)/C=C/C=C(\C)C2 [Compound 30c, Maytan-3-O-carbamoyl-N-(2-methyl-4-amino)benzene] | ** (** indicates % kill greater than, or equal to, 85 and less than 90) | ≥ 10 nM | ** (** indicates % kill greater than, or equal to, 85 and less than 90) | 1 to 10 nM | *** (*** indicates % kill greater than, or equal to, 90 and less than 95) | 1 to 10 nM |
| Maytan-3-O-carbamoyl-N-(4-trifluoromethoxy-2-amino)benzene [Compound 30n] | ***** (***** indicates % kill greater than, or equal to, 99) | ≥ 10 nM |  |  | ***** (***** indicates % kill greater than, or equal to, 99) | 1 to 10 nM |
| Maytan-3-O-carbamoyl-N-(2-methyl-3-amino)benzene [Compound 30d] | **** (**** indicates % kill greater than, or equal to, 95 and less than 99) | 1 to 10 nM |  |  | **** (**** indicates % kill greater than, or equal to, 95 and less than 99) | 1 to 10 nM |
| COc1cc2cc(c1Cl)N(C)C(=O)CC(OC(=O)Nc1cc(Cl)c(F)cc1N)C1(C)OC1C(C)C1CC(O)(NC(=O)O1)C(OC)C=CC=C(C)C2 (centres unmarked) [Compound 30o, Maytan-3-O-carbamoyl-N-(4-fluoro-5-chloro-2-amino)benzene] | * (* indicates % kill less than 85) | ≥ 10 nM |  |  | ***** (***** indicates % kill greater than, or equal to, 99) | 0.1 to 1 nM |
| COc1ccc(NC(=O)O[C@H]2CC(=O)N(C)c3cc(cc(OC)c3Cl)C/C(C)=C/C=C/[C@@H](OC)[C@@]3(O)C[C@H](OC(=O)N3)[C@@H](C)[C@@H]3O[C@@]23C)c(N)c1 [Compound 30i, Maytan-3-O-carbamoyl-N-(4-methoxy-2-amino)benzene] | ***** (***** indicates % kill greater than, or equal to, 99) | ≥ 10 nM |  |  | ***** (***** indicates % kill greater than, or equal to, 99) | 1 to 10 nM |
| COc1cc2cc(c1Cl)N(C)C(=O)C[C@H](OC(=O)Nc1ccc(F)cc1N)[C@]1(C)O[C@H]1[C@H](C)[C@@H]1C[C@@](O)(NC(=O)O1)[C@H](OC)/C=C/C=C(\C)C2 [Compound 30g, Maytan-3-O-carbamoyl-N-(4-fluoro-2-amino)benzene] | ***** (***** indicates % kill greater than, or equal to, 99) | 1 to 10 nM |  |  | ***** (***** indicates % kill greater than, or equal to, 99) | 0.1 to 1 nM |
| COc1cc2cc(c1Cl)N(C)C(=O)C[C@H](OC(=O)Nc1cc(N)ccc1F)[C@]1(C)O[C@H]1[C@H](C)[C@@H]1C[C@@](O)(NC(=O)O1)[C@H](OC)/C=C/C=C(\C)C2 [Compound 30h, Maytan-3-O-carbamoyl-N-(2-fluoro-5-amino)benzene] | * (* indicates % kill less than 85) | 1 to 10 nM |  |  | **** (**** indicates % kill greater than, or equal to, 95 and less than 99) | 0.1 to 1 nM |
